Laboratory results reported in patent US20250026762A1, “FUSED PYRAZOLE UREA ANALOGS AS GLUCOSYLCERAMIDE SYNTHASE INHIBITORS” (Merck Sharp & Dohme LLC, priority 2021, published 2025).

target: glucosylceramide synthase (GCS) enzyme in Golgi preparations from human A375 malignant melanoma skin cells (Homo sapiens (Human), UniProt Q16739); assay: UDP-Glo glucosylceramide synthase biochemical assay; conditions: 1.5 μg crude golgi preparation; C6 ceramide and UDP-glucose at 2×Km; 20 h incubation at room temperature; luminescence
Sequence (Q16739 whole entry): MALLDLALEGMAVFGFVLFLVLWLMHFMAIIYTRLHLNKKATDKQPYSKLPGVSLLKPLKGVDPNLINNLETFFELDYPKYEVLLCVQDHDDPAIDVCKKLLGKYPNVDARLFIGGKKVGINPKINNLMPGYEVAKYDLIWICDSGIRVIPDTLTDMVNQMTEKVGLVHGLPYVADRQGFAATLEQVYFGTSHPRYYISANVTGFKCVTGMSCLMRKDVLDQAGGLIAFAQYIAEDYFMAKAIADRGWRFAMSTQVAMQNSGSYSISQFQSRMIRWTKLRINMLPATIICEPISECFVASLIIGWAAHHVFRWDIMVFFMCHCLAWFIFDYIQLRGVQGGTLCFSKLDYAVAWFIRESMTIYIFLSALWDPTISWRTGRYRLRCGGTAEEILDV

Compared with `O=C(N1CCN2CCC1CC2)n1nc(-c2ccc(OC(F)F)cc2)c2c1CCC2` [Compound 5, 1,4-diazabicyclo[3.2.2]nonan-4-yl-[3-[4-(difluoromethoxy)phenyl]-5,6-dihydro-4H-cyclopenta[c]pyrazol-1-yl]methanone], `COc1c(F)cccc1-c1nn(C(=O)N2CCN3CCC2CC3)c2c1CCC2` [Compound 38, 1,4-diazabicyclo[3.2.2]nonan-4-yl-[3-(3-fluoro-2-methoxy-phenyl)-5,6-dihydro-4H-cyclopenta[c]pyrazol-1-yl]methanone] is 2-fold higher in EC50: 300 pM for the first, 600 pM for the second. The first is the more potent here.

`COc1ccc(-c2nn(C(=O)N3CCN4CCC3CC4)c3c2CCOC3)cc1Cl` [Compound 3, 1,4-diazabicyclo[3.2.2]nonan-4-yl(3-(3-chloro-4-methoxyphenyl)-4,5-dihydropyrano[3,4-c]pyrazol-1(7H)-yl)methanone] and `O=C(N1CCN2CCC1CC2)n1nc(-c2cccc(Cl)c2F)c2c1COCC2` [Compound 27] are within 1.5-fold of each other in EC50: 1400 pM for the first, 1600 pM for the second.

First: O=C(N1CCN2CCC1CC2)n1nc(-c2ccc(F)cc2)c2c1[C@H]1C[C@H]1C2 [Compound 11, (1,4-diazabicyclo[3.2.2]nonan-4-yl)((4aS,5aS)-3-(4-fluorophenyl)-4,4a,5,5a-tetrahydro-1H-cyclopropa[4,5]cyclopenta[1,2-c]pyrazol-1-yl)methanone]
Second: CC1CCc2c(-c3ccc(F)cc3)nn(C(=O)N3CCN4CCC3CC4)c21 (single isomer, unassigned) [Compound 16, R or S-(1,4-diazabicyclo[3.2.2]nonan-4-yl)(3-(4-fluorophenyl)-6-methyl-5,6-dihydrocyclopenta[c]pyrazol-1(4H)-yl)methanone]
The EC50 of the first is 4-fold lower: 100 pM for the first, 400 pM for the second. The first is the more potent here.

Compared with `O=C(N1CCN2CCC1CC2)n1nc(-n2nc(C(F)(F)F)ccc2=O)c2c1CCOC2` [Compound 25, 2-(1-(1,4-diazabicyclo[3.2.2]nonane-4-carbonyl)-1,4,6,7-tetrahydropyrano[4,3-c]pyrazol-3-yl)-6-(trifluoromethyl)pyridazin-3(2H)-one], `Cc1cccc(-c2nn(C(=O)N3CCN4CCC3CC4)c3c2COCC3)c1F` [Compound 39, (1,4-diazabicyclo[3.2.2]nonan-4-yl)(3-(2-fluoro-3-methylphenyl)-6,7-dihydropyrano[4,3-c]pyrazol-1(4H)-yl)methanone] is 90-fold lower in EC50: 27000 pM for the first, 300 pM for the second. The second is the more potent here.

Compound `COc1cnn(-c2nn(C(=O)N3CCN4CCC3CC4)c3c2CCC3)c1` [Compound 58, (1,4-diazabicyclo[3.2.2]nonan-4-yl)(3-(4-methoxy-1H-pyrazol-1-yl)-5,6-dihydrocyclopenta[c]pyrazol-1(4H)-yl)methanone] has an EC50 of 10000 pM.

system: GD and PD patient-derived induced pluripotent stem cell (iPSC) neurons; assay: not given; conditions: Zunke, F. et al., Neuron 2018; cited from earlier work

For `CCCCCCCC(=O)N[C@H](CN1CCCC1)[C@H](O)c1ccc2c(c1)OCCO2` [eliglustat, Eliglustat], the “formation of pathological α-synuclein aggregates” value is given as “reverse the formation of pathological α-synuclein aggregates”.
